Values joined by “and” are separate entries in the source; they are usually repeats but may differ in a detail not shown here. Equal values may be shown once.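 A five-concentration, 48-hour dose response in 96-well plates underlies each endpoint, interpolated linearly between surrounding concentrations. The concentration for 50% growth inhibition is given as GI50. TGI denotes the concentration required for complete inhibition of growth.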
Tests used:
Assay in all cases: NCI anticancer screen, dose series, 48 h
[1] = test system: SN12C renal
[2] = test system: PC-3 prostate
[3] = test system: SNB-75 CNS
[4] = test system: EKVX NSCLC
[5] = test system: MCF7 breast
[6] = test system: HOP-62 NSCLC
[7] = test system: OVCAR-3 ovarian
[8] = test system: CAKI-1 renal
[9] = test system: NCI-H23 lung
[10] = test system: MOLT-4 leukemia

| Compound | GI50 [1] | TGI [1] | GI50 [2] [µM] | TGI [2] [µM] | GI50 [3] | TGI [3] | GI50 [4] | TGI [4] | GI50 [5] [µM] | TGI [5] [µM] | GI50 [6] | TGI [6] | GI50 [7] | TGI [7] | GI50 [8] | TGI [8] | GI50 [9] | TGI [9] | GI50 [10] | TGI [10] |
| --- | --- | --- | --- | --- | --- | --- | --- | --- | --- | --- | --- | --- | --- | --- | --- | --- | --- | --- | --- | --- |
| [Cl][Cu][Cl] | > 10 µM | > 10 µM | > 10 | > 10 | > 10 µM | > 10 µM | > 10 µM | > 10 µM | > 10 | > 10 | > 10 µM | > 10 µM | > 10 µM | > 10 µM | > 10 µM | > 10 µM | > 10 µM | > 10 µM | > 10 µM | > 10 µM |
| C#CCNC(=O)NC(CCCCNC(=O)OCc1ccccc1)C(=O)OCc1ccccc1 (configuration not stated) |  | > 81.1 µM |  | > 100 |  | 37.3 µM |  | > 100 µM |  | > 100 |  | > 100 µM |  | > 100 µM |  | > 100 µM |  | > 100 µM |  | 85.7 µM |
| N#Cc1c(NC(=O)c2ccccc2F)sc2c1CCCC2 | > 25 µM | > 25 µM | > 25 | > 25 | > 21.7 µM | > 25 µM | > 25 µM | > 25 µM | > 19.5 | > 25 | > 25 µM | > 25 µM | > 25 µM | > 25 µM | > 19.4 µM | > 25 µM | > 25 µM | > 25 µM | > 25 µM | > 25 µM |
| O=c1[nH]c(=S)[nH]c(-c2ccccc2)c1Cc1c(O)ccc2ccccc12 |  | > 100 µM |  | > 100 |  | 65 µM |  | 64.4 µM |  | > 100 |  | > 100 µM |  | > 100 µM |  | > 100 µM |  | 90.6 µM |  | > 100 µM |
| COc1c(OC(C)C)cc2cc(O)c(C(=O)NC3Cc4ccc(c(Cl)n4)O[C@@H]4C=C5C#C/C(=C\C#CC6OC56C4OC4CC(C)(O)C(O)C(C)O4)C(OC4CC(O)C(N(C)C)C(C)O4)COC3=O)cc2c1OC (some centres not stated) | 17.7 µM and 0.718 µg/mL | > 36.3 µM and 9.82 µg/mL |  | > 36.3 | 4.43 µg/mL | > 36.3 µM and 19.1 µg/mL | > 36.3 µM and 37.5 µg/mL | > 36.3 µM and 37.5 µg/mL |  | > 36.3 | 10.3 µM and 0.402 µg/mL | > 36.3 µM and 1.74 µg/mL | > 36.3 µM and 21.3 µg/mL | > 36.3 µM and 37.5 µg/mL | 0.897 µg/mL | > 36.3 µM and 37.5 µg/mL | 6.32 µM and 0.296 µg/mL | > 36.3 µM and 1.79 µg/mL | 0.00979 µg/mL | 14.2 µg/mL |
| COc1c(CC=C(C)C)c(O)c(C(CC(C)C)c2c(O)c(CC=C(C)C)c(O)c(C(C)=O)c2O)c(O)c1C(C)=O (configuration not stated) |  | 6.84 µM |  | 10.3 |  | 8.32 µM |  | 11.4 µM |  | 4.84 |  | 3.96 µM |  | 12.5 µM |  | 11.7 µM |  | 0.877 µM |  | 2.48 µM |
| O=C1/C(=C/c2ccccc2[N+](=O)[O-])COc2ccc(O)cc21 | 1.6 µM | 5.55 µM | 2.01 | 10.8 | 2.76 µM | 19.6 µM | 3.22 µM | 14.5 µM | 0.697 | 8.75 | 5.21 µM | 19.3 µM | 0.523 µM | 1.76 µM | 1.03 µM | 2.91 µM | 1.59 µM | 4.41 µM | 2.27 µM | 8.23 µM |
| COc1cc(-c2ncn(/C=C\c3nnco3)n2)cc(C(F)(F)F)c1 | 0.723 µM | > 83.2 µM | 0.189 | > 100 | 0.0863 µM | 4.73 µM | 4.66 µM | > 100 µM | 0.179 | > 33.4 | 0.403 µM | > 47 µM | 0.12 µM | 2.69 µM | 0.154 µM | > 100 µM | 0.132 µM | > 64.8 µM | 0.0411 µM |  |
| N#Cc1cc2c(cc1Cl)Sc1nnc(Nc3cccc4ccccc34)n1S2(=O)=O | 2.51 µM | 6.73 µM | 4.75 | 18 | 6.43 µM | 18.2 µM | 20.2 µM | 39.6 µM | 2.1 | 4.8 | 15.6 µM | 29.6 µM | 1.77 µM | 3.47 µM | 3.14 µM | 10.9 µM | 1.8 µM | 3.43 µM | 3.84 µM | > 100 µM |
| C=CCN(CC=C)C(=O)[C@H](CC)[C@@H]1CC[C@@H](C)[C@@H]([C@H](C)[C@@H](O)[C@@H](C)C(=O)[C@H](CC)C2O[C@]3(C=C[C@@H](O)[C@]4(CC[C@@](C)([C@H]5CC[C@](O)(CC)[C@H](C)O5)O4)O3)[C@H](C)C[C@@H]2C)O1 (some centres not stated) | 2.2 µM | 6.42 µM | 2.31 | 12.4 | 1.84 µM | 10.5 µM | 2.33 µM | 9.07 µM | 1.95 | 5.14 | 3.22 µM | 12.2 µM | 1.92 µM | 4.57 µM | 1.75 µM | 7.63 µM | 2.48 µM | 6.93 µM | 2.33 µM | 6.01 µM |
| CSC1=Nc2c(c(C)c(-c3ccccc3)n2COC(CO)CO)C2=NC(=O)CN12 | > 100 µM | > 100 µM | > 100 | > 100 | 58.9 µM | > 100 µM | > 100 µM | > 100 µM | > 100 | > 100 | 98.2 µM | > 100 µM | > 100 µM | > 100 µM | > 100 µM | > 100 µM | > 100 µM | > 100 µM | > 100 µM | > 100 µM |
| CN(C)c1nc(N)c(C#N)c(C#N)c1C#N |  | > 10 µM |  | > 10 |  | > 10 µM |  | > 10 µM |  | > 10 |  | > 10 µM |  | > 10 µM |  | > 10 µM |  | > 10 µM |  | > 10 µM |
| Nc1nc(C(=O)O)c(N=Nc2ccccc2)c(=O)[nH]1 |  | > 100 µM |  | > 100 |  | > 100 µM |  | > 100 µM |  | > 100 |  | > 100 µM |  | > 100 µM |  | > 100 µM |  | > 100 µM |  | > 100 µM |
| Nc1nc(-c2ccc(Cl)cc2)nc2c1sc(=S)n2-c1ccccc1 | 6.34 µM | 48.1 µM | 17.3 | > 100 | 1.73 µM | 3.72 µM | 2.75 µM | 14.7 µM | 4.29 | > 100 | 3.4 µM | 11.7 µM | 2.75 µM | 7.64 µM | 9.17 µM | 84.5 µM | 4.05 µM | 18.2 µM | > 100 µM | > 100 µM |

From PubChem BioAssay (NCI)
